Test results taken from the NIST ThermoML archive (doi:10.1016/j.fluid.2004.11.019).

Experiment: xn = mol fraction of the nth substance listed
Conditions: Liquid

CCO [ethanol] + O
Conditions	mass density [kg/m3]
298.15 K, 30000 kPa, x1 = 0.35	907.2
298.15 K, 30000 kPa, x1 = 0.4034	895.5
298.15 K, 30000 kPa, x1 = 0.4501	885.7
298.15 K, 30000 kPa, x1 = 0.498	876.8
298.15 K, 30000 kPa, x1 = 0.5501	867.6
298.15 K, 30000 kPa, x1 = 0.5998	859.5
298.15 K, 30000 kPa, x1 = 0.6489	852
298.15 K, 30000 kPa, x1 = 0.6967	845.1
298.15 K, 30000 kPa, x1 = 0.7475	838.5
298.15 K, 30000 kPa, x1 = 0.7996	831.9
298.15 K, 30000 kPa, x1 = 0.8484	825.9
298.15 K, 30000 kPa, x1 = 0.8993	820
298.15 K, 30000 kPa, x1 = 0.9503	814.5
298.15 K, 30000 kPa, x1 = 1	808.9
298.15 K, 40000 kPa, x1 = 0.003	1012.7
298.15 K, 40000 kPa, x1 = 0.0042	1011.5
298.15 K, 40000 kPa, x1 = 0.0082	1010
298.15 K, 40000 kPa, x1 = 0.0119	1008.3
298.15 K, 40000 kPa, x1 = 0.0158	1006.4
298.15 K, 40000 kPa, x1 = 0.0184	1005
298.15 K, 40000 kPa, x1 = 0.0219	1004.1
298.15 K, 40000 kPa, x1 = 0.0255	1002.4
298.15 K, 40000 kPa, x1 = 0.0279	1000.8
298.15 K, 40000 kPa, x1 = 0.0315	1000
298.15 K, 40000 kPa, x1 = 0.0366	997.6
298.15 K, 40000 kPa, x1 = 0.0392	996.4
298.15 K, 40000 kPa, x1 = 0.0439	995.1
298.15 K, 40000 kPa, x1 = 0.0483	993.3
298.15 K, 40000 kPa, x1 = 0.0516	992.7
298.15 K, 40000 kPa, x1 = 0.0559	991.5
298.15 K, 40000 kPa, x1 = 0.06	990.1
298.15 K, 40000 kPa, x1 = 0.0652	988.4
298.15 K, 40000 kPa, x1 = 0.0679	987.6
298.15 K, 40000 kPa, x1 = 0.0722	986.3
298.15 K, 40000 kPa, x1 = 0.0801	983.7
298.15 K, 40000 kPa, x1 = 0.084	983.2
298.15 K, 40000 kPa, x1 = 0.0879	981.9
298.15 K, 40000 kPa, x1 = 0.0926	980.6
298.15 K, 40000 kPa, x1 = 0.0958	979.8
298.15 K, 40000 kPa, x1 = 0.1006	978.5
298.15 K, 40000 kPa, x1 = 0.1111	975.4
298.15 K, 40000 kPa, x1 = 0.1225	972.2
298.15 K, 40000 kPa, x1 = 0.1296	970.4
298.15 K, 40000 kPa, x1 = 0.1402	967.3
298.15 K, 40000 kPa, x1 = 0.151	964.3
298.15 K, 40000 kPa, x1 = 0.1601	961.7
298.15 K, 40000 kPa, x1 = 0.1703	958.9
298.15 K, 40000 kPa, x1 = 0.18	956.2
298.15 K, 40000 kPa, x1 = 0.1903	953.3
298.15 K, 40000 kPa, x1 = 0.1996	950.5
298.15 K, 40000 kPa, x1 = 0.2269	942.9
298.15 K, 40000 kPa, x1 = 0.2502	936.7
298.15 K, 40000 kPa, x1 = 0.2745	930.3
298.15 K, 40000 kPa, x1 = 0.3009	923.7
298.15 K, 40000 kPa, x1 = 0.35	911.9
298.15 K, 40000 kPa, x1 = 0.4034	900.4
298.15 K, 40000 kPa, x1 = 0.4501	890.8
298.15 K, 40000 kPa, x1 = 0.498	882
298.15 K, 40000 kPa, x1 = 0.5501	873
298.15 K, 40000 kPa, x1 = 0.5998	865.1
298.15 K, 40000 kPa, x1 = 0.6489	857.7
298.15 K, 40000 kPa, x1 = 0.6967	851
298.15 K, 40000 kPa, x1 = 0.7475	844.5
298.15 K, 40000 kPa, x1 = 0.7996	838.1
298.15 K, 40000 kPa, x1 = 0.8484	832.3
298.15 K, 40000 kPa, x1 = 0.8993	826.5
298.15 K, 40000 kPa, x1 = 0.9503	821
298.15 K, 40000 kPa, x1 = 1	815.7
323.15 K, 100 kPa, x1 = 0.003	986.5
323.15 K, 100 kPa, x1 = 0.0042	985.4
323.15 K, 100 kPa, x1 = 0.0082	984
323.15 K, 100 kPa, x1 = 0.0119	982.7
323.15 K, 100 kPa, x1 = 0.0158	980.5
323.15 K, 100 kPa, x1 = 0.0184	979.2
323.15 K, 100 kPa, x1 = 0.0219	978
323.15 K, 100 kPa, x1 = 0.0255	976.5
323.15 K, 100 kPa, x1 = 0.0279	974.8
323.15 K, 100 kPa, x1 = 0.0315	973.9
323.15 K, 100 kPa, x1 = 0.0366	971.4
323.15 K, 100 kPa, x1 = 0.0392	970.2
323.15 K, 100 kPa, x1 = 0.0439	968.6
323.15 K, 100 kPa, x1 = 0.0483	966.6
323.15 K, 100 kPa, x1 = 0.0516	965.9
323.15 K, 100 kPa, x1 = 0.0559	964.5
323.15 K, 100 kPa, x1 = 0.06	962.9
323.15 K, 100 kPa, x1 = 0.0652	960.9
323.15 K, 100 kPa, x1 = 0.0679	960.2
323.15 K, 100 kPa, x1 = 0.0722	958.3
323.15 K, 100 kPa, x1 = 0.0801	955.1
323.15 K, 100 kPa, x1 = 0.084	954.7
323.15 K, 100 kPa, x1 = 0.0879	952.9
323.15 K, 100 kPa, x1 = 0.0926	951.4
323.15 K, 100 kPa, x1 = 0.0958	950.1
323.15 K, 100 kPa, x1 = 0.1006	948.5
323.15 K, 100 kPa, x1 = 0.1111	944.7
323.15 K, 100 kPa, x1 = 0.1225	940.6
323.15 K, 100 kPa, x1 = 0.1296	938.2
323.15 K, 100 kPa, x1 = 0.1402	934.5
323.15 K, 100 kPa, x1 = 0.151	930.7
323.15 K, 100 kPa, x1 = 0.1601	927.5
323.15 K, 100 kPa, x1 = 0.1703	924
